According to patent US6399542B1, “Alkoxyimino-substituted bicyclic compounds compositions containing the same and method of making such compounds” (Agro-Kanesho Co., Ltd., priority 1997, dated 2002):
“And” between values parts separate entries of the source, which are not always exact repeats. Identical values can stand only once. Like-named read-outs stand apart in the source and are kept apart here.

Tests used:
Assay type in all cases: in vivo
[1] = tested on: Puccinia recondita; assay: Effect on Wheat brown rust (preventive spray test); details: 7 days after inoculation
[2] = tested on: Psecidoperonospora cubensis; assay: Effect on Cucumber downy mildew (preventive spray test); details: 7 days after inoculation
[3] = tested on: Erysiphe graminis; assay: Effects on Barley powdery mildew (preventive spray test); details: lesions counted seven days after inoculation
[4] = tested on: Phytophthora infestans; details: Tomato late blight, 5 days after inoculation
[5] = conc. of active ingredient 20 ppm
[6] = conc. of active ingredient 100 ppm
[7] = conc. of active ingredient 4 ppm

SMILES	Preventive rate (%) [1, 5]	Preventive rate (%) [1, 6]	Preventive rate (%) [2, 5]	Preventive rate (%) [2, 6]	Preventive rate (%) [3, 5]	Preventive rate (%) [3, 6]	Preventive rate (%) [2, 7]	Preventive rate (%) [4, 5]	Preventive rate (%) [4, 6]	Preventive rate (%) [1, 7]	Preventive rate (%) [3, 7]	Preventive rate (%) [4, 7]
CNC(=O)C(OC)c1ccccc1COc1ccc2c(c1)OCCC2=NOC (racemic) [c-11]	93%	99%	–	–	–	–	–	–	–	–	–	–
CCc1cc2c(cc1OCc1ccccc1/C(=N\OC)C(=O)OC)OCC2=NOC (single isomer, unassigned) [a-29]	–	–	97%	97%	–	–	–	–	–	–	–	–
CCc1cc2c(cc1OCc1ccccc1/C(=N\OC)C(=O)NC)OCC2=NOC (single isomer, unassigned) [a-31]	–	–	–	–	99%	100%	–	–	–	–	–	–
CON=C(C(=O)OC)c1ccccc1COc1cc2c(cc1C)C(=NOC)C(C)C2 (single isomer, unassigned) [f-9]	–	–	100%	100%	–	–	100%	93%	98%	–	–	–
CCc1cc2c(cc1OCc1ccccc1/C(=N\OC)C(=O)NC)OCC2=NOC [a-32]	–	–	81%	97%	–	–	–	98%	91%	–	–	–
CO/N=C(/C(=O)OC)c1ccccc1COc1ccc2c(c1C)OCC2=NOCC#N [a-48]	100%	100%	100%	100%	–	–	–	81%	94%	100%	–	–
CNC(=O)/C(=N/OC)c1ccccc1COc1ccc2c(c1C)OCC2=NOCC#N [a-49]	100%	100%	100%	100%	–	–	88%	97%	97%	100%	–	–
CNC(=O)/C(=N/OC)c1ccccc1COc1ccc2c(c1C)OCC2=NOCC(=O)OC [a-54]	100%	100%	–	–	–	–	–	–	–	100%	–	–
C=C(Cl)CON=C1COc2c1ccc(OCc1ccccc1/C(=N\OC)C(=O)NC)c2C [a-64]	100%	100%	100%	100%	98%	100%	100%	84%	100%	100%	94%	–
C/C=C/CON=C1COc2c1ccc(OCc1ccccc1/C(=N\OC)C(=O)NC)c2C [a-65]	100%	100%	94%	100%	–	–	–	97%	100%	–	–	–
CO/N=C(/C(=O)OC)c1ccccc1COc1ccc2c(c1C)OCC2=NOCC=C(C)C [a-66]	100%	100%	–	–	–	–	–	–	–	100%	–	–
CNC(=O)/C(=N/OC)c1ccccc1COc1ccc2c(c1C)OCC2=NOCC=C(C)C [a-67]	100%	100%	100%	100%	–	–	–	88%	100%	100%	–	–
CO/N=C(/C(=O)OC)c1ccccc1COc1ccc2c(c1C)OCC2=NOCc1ccccc1 [a-72]	100%	100%	–	–	–	–	–	–	–	–	–	–
CNC(=O)/C(=N/OC)c1ccccc1COc1ccc2c(c1C)OCC2=NOCc1ccccc1 [a-73]	100%	100%	88%	88%	100%	100%	–	–	–	100%	98%	–
CO/N=C(/C(=O)OC)c1ccccc1COc1ccc2c(c1C)OCC2=NOCc1ccc(Cl)c(Cl)c1 [a-78]	100%	100%	–	–	–	–	–	–	–	95%	–	–
CNC(=O)/C(=N/OC)c1ccccc1COc1ccc2c(c1C)OCC2=NOCc1ccc(Cl)c(Cl)c1 [a-79]	98%	100%	–	–	–	–	–	–	–	98%	–	–
CO/C=C(/C(=O)OC)c1ccccc1COc1ccc2c(c1)OCCC2=NOC [c-2]	100%	100%	97%	100%	100%	100%	–	98%	98%	93%	–	84%
CON=C1CCOc2cc(OCc3ccccc3N(OC)C(=O)OC)ccc21 [c-7]	99%	100%	94%	100%	–	–	–	–	–	–	–	–
CON=C(C(=O)OC)c1ccccc1COc1cc2c(cc1C)C(=NOC)CCO2 [c-26]	98%	99%	100%	100%	–	–	–	–	–	–	–	–
CCc1c(OCc2ccccc2C(=NOC)C(=O)OC)ccc2c1OCCC2=NOC [c-29]	100%	100%	–	–	95%	99%	–	–	–	96%	–	–

SMILES	Preventive rate (%) [1, 5]	Preventive rate (%) [1, 6]	Preventive rate (%) [2, 5]	Preventive rate (%) [2, 6]	Preventive rate (%) [3, 5]	Preventive rate (%) [3, 6]	Preventive rate (%) [2, 7]	Preventive rate (%) [4, 5]	Preventive rate (%) [4, 6]	Preventive rate (%) [1, 7]	Preventive rate (%) [3, 7]	Preventive rate (%) [4, 7]
CCCCON=C1CCOc2c1ccc(OCc1ccccc1C(=NOC)C(=O)NC)c2C [c-43]	93%	–	–	–	–	–	–	–	–	–	–	–
CON=C(C(=O)OC)c1ccccc1COc1ccc2c(c1C)OCCC2=NOCC#N [c-48]	100%	100%	–	–	–	–	–	–	–	100%	–	–
CNC(=O)C(=NOC)c1ccccc1COc1ccc2c(c1C)OCCC2=NOCC#N [c-49]	93%	94%	–	–	–	–	–	–	–	91%	–	–
CON=C(C(=O)OC)c1ccccc1COc1ccc2c(c1C)OCCC2=NOC(C)(C)C [c-52]	93%	100%	–	–	–	–	–	–	–	–	–	–
CCCCON=C1CCOc2c1ccc(OCc1ccccc1C(=NOC)C(=O)NC)c2C [c-58]	100%	100%	–	–	98%	100%	–	–	100%	98%	–	–
CON=C(C(=O)OC)c1ccccc1COc1ccc2c(c1C)OCCC2=NOCC=CCl [c-61]	100%	100%	–	–	–	–	–	–	–	99%	–	–
CNC(=O)C(=NOC)c1ccccc1COc1ccc2c(c1C)OCCC2=NOCC=CCl [c-62]	100%	100%	–	–	100%	100%	–	100%	100%	100%	96%	–
CON=C(C(=O)OC)c1ccccc1COc1ccc2c(c1)OCCC2=NOCC=CCl [c-63]	99%	100%	–	–	–	–	–	–	–	–	–	–
CNC(=O)C(=NOC)c1ccccc1COc1ccc2c(c1C)OCCC2=NOCC=C(C)C [c-67]	100%	100%	–	–	100%	100%	–	–	–	100%	–	–
CON=C(C(=O)OC)c1ccccc1COc1ccc2c(c1C)OCCC2=NOCc1ccc(Cl)c(Cl)c1 [c-78]	96%	100%	–	–	–	–	–	–	–	–	–	–
CNC(=O)C(=NOC)c1ccccc1COc1ccc2c(c1C)OCCC2=NOCc1ccc(Cl)c(Cl)c1 [c-79]	100%	100%	–	–	100%	100%	–	–	–	97%	–	–
CON=C(C(=O)OC)c1ccccc1COc1ccc2c(c1C)OCCC2=NOCc1cccc(F)c1 [c-80]	98%	100%	–	–	–	–	–	–	–	–	–	–
CNC(=O)C(=NOC)c1ccccc1COc1ccc2c(c1C)OCCC2=NOCc1cccc(F)c1 [c-81]	99%	100%	–	–	98%	98%	–	–	–	98%	–	–
CON=C(C(=O)OC)c1ccccc1COc1ccc2c(c1C)OCCC2=NOCc1c(F)c(F)c(F)c(F)c1F [c-82]	96%	100%	–	–	86%	100%	–	–	–	–	–	–
CNC(=O)C(=NOC)c1ccccc1COc1ccc2c(c1C)OCCC2=NOCc1cccc2ccccc12 [c-89]	100%	100%	–	–	92%	98%	–	–	–	96%	–	–
CON=C1CCc2cc(OCc3ccccc3C(=NOC)C(=O)OC)ccc21 [e-4]	98%	–	–	–	–	–	–	–	–	–	–	–
CON=C(C(=O)OC)c1ccccc1COc1ccc2c(c1C)CCC2=NOC [e-15]	98%	99%	95%	100%	–	–	–	–	–	–	–	–
CON=C(C(=O)OC)c1ccccc1COc1ccc2c(c1C)CCC2=NOCC=CCl [e-57]	–	–	94%	100%	–	–	–	–	–	–	–	–
CNC(=O)C(=NOC)c1ccccc1COc1ccc2c(c1)CCC2=NOCC=CCl [e-58]	100%	100%	100%	100%	100%	100%	100%	92% and 98%	100%	–	–	–
C#CCON=C1CCc2c1ccc(OCc1ccccc1C(=NOC)C(=O)OC)c2C [e-60]	–	–	88%	100%	–	–	–	–	–	–	–	–
